From patent US20170056423A1 (Gilead Sciences, Inc., priority 2012, published 2017)
Like-named read-outs stand apart in the source and are kept apart here.

What was measured:
[1] = 25 mg level
Experimental: In order to provide a robust assessment of pharmacokinetic comparisons between test versus reference treatments, a balanced Williams 4×4 design was used in each cohort.
The evaluation used two cohorts of twenty patients. In Cohort 1, the following study treatments were administered.

[2] = Study 1, while receiving GS-7340 SA (25 mg)
HIV-1 = conditions: against HIV-1 in T cells, activated PBMCs, and macrophages
[3] = molecular target: human pregnane X receptor (Homo sapiens, UniProt O75469); assay: pregnane X receptor activation
[4] = test system: cytochrome P450 enzymes (all isoforms tested); assay: in vitro; conditions: human
UGT1A1 = UGT1A1 (Homo sapiens, UniProt P22309); conditions: at concentrations up to 50 μM
[5] = molecular target: aryl hydrocarbon receptor (Homo sapiens, UniProt P35869); assay: aryl hydrocarbon receptor activation
Sequence of aryl hydrocarbon receptor (P35869 11-848, species assumed): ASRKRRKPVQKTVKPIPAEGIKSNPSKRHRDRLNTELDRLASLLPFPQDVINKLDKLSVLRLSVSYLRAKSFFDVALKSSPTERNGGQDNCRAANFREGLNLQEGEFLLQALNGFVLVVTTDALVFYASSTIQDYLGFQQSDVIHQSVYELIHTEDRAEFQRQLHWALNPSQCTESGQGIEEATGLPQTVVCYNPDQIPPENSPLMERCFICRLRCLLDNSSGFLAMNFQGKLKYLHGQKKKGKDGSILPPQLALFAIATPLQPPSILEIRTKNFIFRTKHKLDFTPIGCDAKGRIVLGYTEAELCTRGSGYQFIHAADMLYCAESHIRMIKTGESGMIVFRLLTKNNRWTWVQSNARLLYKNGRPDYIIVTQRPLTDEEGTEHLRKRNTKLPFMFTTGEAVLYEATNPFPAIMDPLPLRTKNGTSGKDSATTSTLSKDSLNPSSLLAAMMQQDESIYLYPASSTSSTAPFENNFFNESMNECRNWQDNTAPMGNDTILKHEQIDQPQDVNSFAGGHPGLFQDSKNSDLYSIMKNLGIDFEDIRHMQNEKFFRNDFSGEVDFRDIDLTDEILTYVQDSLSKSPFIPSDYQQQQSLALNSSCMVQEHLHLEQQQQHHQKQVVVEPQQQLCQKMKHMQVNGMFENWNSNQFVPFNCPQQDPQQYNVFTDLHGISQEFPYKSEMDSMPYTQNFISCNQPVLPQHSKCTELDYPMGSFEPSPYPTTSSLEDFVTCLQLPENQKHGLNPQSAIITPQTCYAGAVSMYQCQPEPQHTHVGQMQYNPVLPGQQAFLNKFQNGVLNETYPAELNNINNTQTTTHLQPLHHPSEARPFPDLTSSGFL

Sequence of human pregnane X receptor (O75469 whole entry, canonical isoform): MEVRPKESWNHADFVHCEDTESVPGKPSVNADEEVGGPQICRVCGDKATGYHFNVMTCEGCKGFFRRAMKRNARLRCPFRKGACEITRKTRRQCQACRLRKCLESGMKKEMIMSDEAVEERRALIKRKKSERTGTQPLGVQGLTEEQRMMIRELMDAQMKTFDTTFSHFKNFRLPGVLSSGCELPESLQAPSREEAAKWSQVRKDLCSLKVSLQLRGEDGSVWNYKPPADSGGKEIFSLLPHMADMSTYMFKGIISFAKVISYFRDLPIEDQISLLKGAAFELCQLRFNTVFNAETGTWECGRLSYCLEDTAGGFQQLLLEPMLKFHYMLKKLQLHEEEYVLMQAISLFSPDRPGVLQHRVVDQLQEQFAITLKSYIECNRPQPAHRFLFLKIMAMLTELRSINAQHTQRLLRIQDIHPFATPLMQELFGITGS
Sequence of UGT1A1 (P22309 26-533): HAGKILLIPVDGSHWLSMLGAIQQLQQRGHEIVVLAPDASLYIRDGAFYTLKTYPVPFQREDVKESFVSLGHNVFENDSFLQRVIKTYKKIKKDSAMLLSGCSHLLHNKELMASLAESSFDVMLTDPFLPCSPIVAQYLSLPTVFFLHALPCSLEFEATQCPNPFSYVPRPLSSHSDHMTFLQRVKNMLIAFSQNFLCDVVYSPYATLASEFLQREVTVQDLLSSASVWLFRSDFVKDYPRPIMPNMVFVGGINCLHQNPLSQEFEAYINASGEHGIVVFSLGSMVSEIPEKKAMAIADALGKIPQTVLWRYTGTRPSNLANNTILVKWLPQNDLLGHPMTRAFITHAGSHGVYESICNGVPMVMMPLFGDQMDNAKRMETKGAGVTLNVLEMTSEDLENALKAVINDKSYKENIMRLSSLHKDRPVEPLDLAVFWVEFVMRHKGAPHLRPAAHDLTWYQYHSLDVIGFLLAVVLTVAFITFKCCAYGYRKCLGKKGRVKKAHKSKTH

CC(C)OC(=O)[C@H](C)N[P@](=O)(CO[C@H](C)Cn1cnc2c(N)ncnc21)Oc1ccccc1 [GS-7340, 9-[(R)-2-[[(S)-[[(S)-1-(isopropoxycarbonyl)ethyl]amino]phenoxyphosphinyl]methoxy]propyl]adenine]
GS-7340 levels, fold higher when administered with cobicistat ([1]; Cohort 1 (Formulation 1, monolayer), FIG. 6): 2.2 fold
GS-7340 levels, fold higher when administered with cobicistat ([1]; Cohort 2 (Formulation 2, bilayer), FIG. 7): 2.2 fold
adverse event leading to one discontinuation [2]: rhabdomyolysis (Grade 2)
enhanced anti-HIV activity relative to tenofovir (HIV-1): 500- to 1000 fold
activation of human pregnane X receptor [3]: not an activator
IC50 [4]: > 7 µM
inhibition of UGT1A1 function (UGT1A1): does not inhibit
activation of aryl hydrocarbon receptor [5]: not an activator
